Usually pEC50 stands for the EC50 on a negative log10 scale, so that one unit is a factor of ten.

Common to all, as to assay type: cell-based
The test system of experiment [1] is retinoic acid response element (RARE). In words: X-Gal RA based reporter assay (genomic activity). The note with it: for Genomic Activity (X-Gal RA Based Reporter Assay) Efficacy (Emax) / pEC50: Sil-15 reporter cells, overnight incubation; for pEC50: read-out: Genomic Activity (X-Gal RA Based Reporter Assay) Potency (EC50); for Genomic activity and potency compared to retinoic acid (ATRA): X-Gal assay, versus ATRA. As to the method: The genomic activity of synthetic retinoids was evaluated by determining their efficiency of inducing transcription using the X-Gal Assay. The X-Gal Assay utilizes Sil-15 reporter cells in which the transcription of the LacZ gene is under control of a promoter linked to a retinoic acid response element (RARE). After treatment of the reporter cells with retinoids, the ability of the compounds to induce transcription can be attained by monitoring and quantifying the activity of β-galactosidase produced by the reporter cells.
Sil-15 cells were plated at 100,000 cells per well in 96-well plates coated in 0.1% gelatin. The following day, serial dilutions of retinoid ligands, prepared in Dulbecco's Modified Eagle's Medium (DMEM) containing 10% foetal calf serum (FCS) were added at concentrations from 10^−6 M to 10^−14 M and the plates were incubated overnight. All concentrations for the ATRA standard curve and the other retinoid ligands were tested in triplicate.
The next day, the assay plates were washed twice with phosphate buffered saline (PBS), fixed with 100 μl per well of 1% glutaraldehyde and 1 mM MgCl2 in PBS for 15 minutes and washed twice with PBS. β-galactosidase activity was detected by the addition of 100 μl of freshly-prepared 0.2% X-Gal in 1 mM MgCl2, 3.3 mM potassium ferricyanide and 3.3 mM potassium ferrocyanide in PBS per well. Plates were incubated for 6 hours at 37° C. in 5% CO2 and colour change was detected by reading the plates at 650 nm on an Emax Precision Microplate Reader (Molecular Devices).
On the technique in general: A reporter such as luciferase makes a cellular process visible.

Experiment [2] has as its system ERK1/2. The experiment can be described thus: ERK1/2 phosphorylation assay, AlphaLISA SureFire Ultra (non-genomic activity). The note with it: SH-SY5Y cells; for pEC50: Homo sapiens, 0.5 h, read-out: Non-genomic activity (ERK½ Phosphorylation Assay) Potency (EC50); for pEC50 / Non-genomic activity (ERK½ Phosphorylation Assay) Efficacy (Emax): serum-free, 30 minutes stimulation; for Erk 1/2 phosphorylation potency/efficacy compared to retinoic acid: versus retinoic acid. Further details: Non-genomic activity (ERK½ Phosphorylation Assay) Efficacy (Emax): unit not given here. As to the method:
The non-genomic activity of synthetic retinoids was evaluated by measuring their ability to induce phosphorylation of ERK1/2 using the AlphaLISA® SureFire® Ultra ERK1/2 kit.
In this assay, SH-SY5Y cells (100,000 cells/well) were plated in 96-well plates and serum-starved in DMEM for 24 hours. Retinoids were tested at concentrations from 10−5 M to 10−11 M and at a final concentration of 0.1% DMSO in the medium. The assay was carried out on the SH-SY5Y cells in serum-free DMEM, cells were stimulated by retinoid for 30 minutes at 37° C.
At the end of the assay, the medium was removed, and cells were lysed in 50 μl of freshly prepared 1× lysis buffer (supplied in the kit). The 96-well plate was agitated on an orbital shaker (SO1, Stuart Scientific) at approximately 350 rpm for 10 minutes at room temperature.
In the meantime, the activation buffer was diluted 25-fold in the reaction buffers. Under green light in a dark room, the acceptor beads were diluted 50-fold in the freshly prepared reaction mix while the donor beads were diluted 50-fold in dilution buffer to obtain two final reaction mixtures.
10 μl of cell lysate was then transferred per well into 384-well white Proxiplates plates (PerkinElmer) and 5 μl of each prepared acceptor and donor reaction mixture was added under green light in a dark room. Plates were wrapped with aluminium foil and incubated at room temperature for at least 3 hours. Readings were taken using an Envision system (PerkinElmer Life Sciences) using the AlphaScreen® settings.
A general note: In Alpha technology, singlet oxygen from a donor bead excites a nearby acceptor bead.

Experiment [3] relates to SH-SY5Y cells. The experiment can be described thus: Induction of neurite outgrowth. The note with it: 10 nM, 5 days; for fold induction at 0.01 µM: Homo sapiens, 120 h, read-out: Neurite Outgrowth Fold increase. As to the method: SY—SY5Y cells were plated at 10,000 cells/well in 12-well plates containing acid-treated/poly-L-lysine-coated coverslips. After 24 hours, each retinoid was added to the medium at a concentration of 10 nM and the plates were incubated for 5 days. After retinoid treatment, SH-SY5Y cells on coverslips were washed twice in PBS, fixed in 4% paraformaldehyde (PFA) for 20 minutes at room temperature, and washed twice with PBS.
For immunocytochemical staining of neurites, cells on coverslips were washed three times in PBS, and incubated in blocking solution (10% donkey serum and 0.1% triton X-100 in PBS) for 1 hour at room temperature. Cells were then labelled by incubation overnight at 4° C. with β-III tubulin primary antibody (Sigma-Aldrich) diluted 1:1000 in blocking buffer. Following incubation overnight, cells were washed three times with PBS containing 0.1% Triton X-100 solution (PBST) before incubation with anti-mouse monoclonal secondary antibody (1:300 in PBST; Jackson Immunoresearch) for 2 hours at room temperature. Finally, after three washes in PBST and a final wash in PBS, the coverslips were mounted on slides and stored at 4° C.
ImageJ software with the NeuronJ plugin was used to quantify neurite outgrowth on stained cells. For each experiment, 10 different randomly selected images were taken from each cover slip using a Nikon Eclipse E400 fluorescence microscope. Each image was converted into an 8-bit image (necessary for the NeuronJ plugin) and optimised with the brightness and contrast tool in GIMP (GNU Image Manipulation Program). For each image, individual traces were drawn for each clearly-identifiable neurite using the tracing tool in the NeuronJ plugin. Neurite length was measured in pixels and transformed into the corresponding length in μm depending on the magnification used. The average neurite length for each image was calculated by dividing total neurite length by the total number of neurites per image. Ten images per cover slip were measured and the mean calculated for the coverslip overall. Coverslips were in triplicate for each retinoid and concentration.

pEC50: −log10 of the molar value.

In the case of `CC1=C(/C=C/C(C)=C/C=C/C(C)=C/C(=O)O)C(C)(C)CCC1` [ATRA, All-trans-retinoic acid, reference compound], in experiment [1], the “Genomic Activity (X-Gal RA Based Reporter Assay) Efficacy (Emax)” value is recorded as 170.1 and the pEC50 was 8.98. In addition, in experiment [2], the pEC50 was 7.48 and the “Non-genomic activity (ERK½ Phosphorylation Assay) Efficacy (Emax)” value (shortened to “Non-genomic activity”) is given as 48.55. Moreover, the fold induction at 0.01 µM in experiment [3] is 1.4.

Turning to `CC1(C)CCC(C)(C)c2cc(C#Cc3ccc(C(=O)O)c(F)c3)ccc21` [DC525], in experiment [1], the “Genomic Activity (X-Gal RA Based Reporter Assay) Efficacy (Emax)” value is 190; the pEC50 is 9.68; the “Genomic activity and potency compared to retinoic acid (ATRA)” value is “increased genomic activity and potency”. In addition, in experiment [2], the pEC50 is 8.60, the “Non-genomic activity” value stood at 42.44 and the “Erk 1/2 phosphorylation potency/efficacy compared to retinoic acid” value is reported as “higher potency”. Also, in experiment [3], the “Average neurite length compared to cells treated with ATRA” value was “significantly larger average neurite length” and the fold induction at 0.01 µM is 1.9.

As to `CC1(C)CCC(C)(C)c2cc(C#Cc3ccc(C(=O)O)cn3)ccc21` [DC527], in experiment [1], the “Genomic Activity (X-Gal RA Based Reporter Assay) Efficacy (Emax)” value was determined as 209.8; the pEC50 is 11.46; the “Genomic activity and potency compared to retinoic acid (ATRA)” value was “increased genomic activity and potency”. Besides, in experiment [2], the pEC50 was 7.51; the “Non-genomic activity” value was found to be 92.51; the “Erk 1/2 phosphorylation potency/efficacy compared to retinoic acid” value was “higher potency and efficacy”. In addition, in experiment [3], the “Average neurite length compared to cells treated with ATRA” value is on record as “significantly larger average neurite length” and the fold induction at 0.01 µM amounted to 1.9.

As for `CC1(C)CCC(C)(C)c2cc(C#Cc3cnc(C(=O)O)cn3)ccc21` [DC529], in experiment [1], the “Genomic Activity (X-Gal RA Based Reporter Assay) Efficacy (Emax)” value is 174 and the pEC50 is 8.41. Besides, in experiment [2], the pEC50 was 7.52 and the “Non-genomic activity” value is 28.85. In experiment [3], the fold induction at 0.01 µM is 1.3.

On to `CC1(C)CCC(C)(C)c2cc(C#Cc3cc(F)c(C(=O)O)c(F)c3)ccc21` [DC540], for which, in experiment [1], the “Genomic Activity (X-Gal RA Based Reporter Assay) Efficacy (Emax)” value is given as 185.3; the pEC50 was 10.82; the “Genomic activity and potency compared to retinoic acid (ATRA)” value is “increased genomic activity and potency”. In experiment [2], the pEC50 was 6.80; the “Non-genomic activity” value worked out at 79.73; the “Erk 1/2 phosphorylation potency/efficacy compared to retinoic acid” value is “higher potency and efficacy”. Moreover, the fold induction at 0.01 µM in experiment [3] stood at 1.7.

With `Cc1cc2c(cc1C#Cc1ccc(C(=O)O)cc1F)C(C)(C)CCC2(C)C` [DC559], in experiment [1], the “Genomic Activity (X-Gal RA Based Reporter Assay) Efficacy (Emax)” value is recorded as 139.8 and the pEC50 was 8.86. In experiment [2], the pEC50 was 7.81 and the “Non-genomic activity” value is given as 40.68. The fold induction at 0.01 µM in experiment [3] amounted to 1.4.

Regarding `COc1cc2c(cc1C#Cc1ccc(C(=O)O)cc1F)C(C)(C)CCC2(C)C` [DC564], in experiment [1], the “Genomic Activity (X-Gal RA Based Reporter Assay) Efficacy (Emax)” value was determined as 177.1 and the pEC50 is 8.27. In experiment [2], the pEC50 was 7.74 and the “Non-genomic activity” value came out at 44.46. Besides, the fold induction at 0.01 µM in experiment [3] amounted to 1.3.

In the case of `CC1(C)CCC(C)(C)c2cc(C#Cc3ccc(C(=O)O)cc3Cl)ccc21` [DC567], in experiment [1], the “Genomic Activity (X-Gal RA Based Reporter Assay) Efficacy (Emax)” value amounted to 97.21 and the pEC50 is 7.87. In addition, in experiment [2], the pEC50 was 7.74 and the “Non-genomic activity” value came to 44.46. In addition, the fold induction at 0.01 µM in experiment [3] is 1.6.

In the case of `COc1cc2c(cc1C#Cc1ccc(C(=O)O)cn1)C(C)(C)CCC2(C)C` [DC646], in experiment [1], the “Genomic Activity (X-Gal RA Based Reporter Assay) Efficacy (Emax)” value is 176.3 and the negative logarithm of the EC50 (pEC50) is 8.50. In experiment [2], the pEC50 is 6.84 and the “Non-genomic activity” value amounted to 77.63. Moreover, the fold induction at 0.01 µM in experiment [3] stood at 1.7.

Consider `Cc1cc2c(cc1C#Cc1ccc(C(=O)O)cn1)C(C)(C)CCC2(C)C` [DC656], for which, in experiment [1], the “Genomic Activity (X-Gal RA Based Reporter Assay) Efficacy (Emax)” value is reported as 177.2 and the pEC50 was 9.37. For the same molecule, in experiment [2], the pEC50 is 6.30 and the “Non-genomic activity” value amounted to 56.77. Further, the fold induction at 0.01 µM in experiment [3] was determined as 1.6.

With `COc1cc2c(cc1C#Cc1cc(F)c(C(=O)O)c(F)c1)C(C)(C)CCC2(C)C` [DC657], in experiment [1], the “Genomic Activity (X-Gal RA Based Reporter Assay) Efficacy (Emax)” value was 154.9 and the pEC50 is 9.83. In experiment [2], the pEC50 is 8.46 and the “Non-genomic activity” value was 72.45. The fold induction at 0.01 µM in experiment [3] came to 1.4.

Turning to `Cc1cc2c(cc1C#Cc1ccc(C(=O)O)c(F)c1)C(C)(C)CCC2(C)C` [DC667], in experiment [1], the “Genomic Activity (X-Gal RA Based Reporter Assay) Efficacy (Emax)” value was 169.8 and the pEC50 was 9.87. Further, in experiment [2], the pEC50 is 8.31 and the “Non-genomic activity” value is listed as 44.3. The fold induction at 0.01 µM in experiment [3] stood at 1.4.

As for `COc1cc2c(cc1C#Cc1ncc(C(=O)O)cn1)C(C)(C)CCC2(C)C` [DC706], in experiment [1], the “Genomic Activity (X-Gal RA Based Reporter Assay) Efficacy (Emax)” value is 265.9 and the pEC50 is 6.22. In addition, in experiment [2], the pEC50 is 7.04 and the “Non-genomic activity” value turned out to be 36.87. For the same molecule, the fold induction at 0.01 µM in experiment [3] came out at 1.3.

In the case of `Cc1cc2c(cc1C#Cc1ncc(C(=O)O)cn1)C(C)(C)CCC2(C)C` [DC707], in experiment [1], the “Genomic Activity (X-Gal RA Based Reporter Assay) Efficacy (Emax)” value was determined as 192.2 and the pEC50 was 9.08. In experiment [2], the negative-log EC50 (pEC50) was 8.36 and the “Non-genomic activity” value was determined as 44.87. Besides, the fold induction at 0.01 µM in experiment [3] is 1.2.

On to `CC1(C)CCC(C)(C)c2nc(C#Cc3ccc(C(=O)O)cc3F)cnc21` [DC712], for which, in experiment [1], the “Genomic Activity (X-Gal RA Based Reporter Assay) Efficacy (Emax)” value is reported as 179.7 and the pEC50 is 9.42. For the same molecule, in experiment [2], the pEC50 is 8.20 and the “Non-genomic activity” value is on record as 94. Further, the fold induction at 0.01 µM in experiment [3] stood at 1.2.

The values are drawn from patent US12344587B2, “Synthetic retinoids for use in RAR activation” (UNIVERSITY OF DURHAM, priority 2019, dated 2025).
